{"source": "the OligoGym collection", "note": "Oligonucleotides are given in HELM: sugar(base)linkage, 5' to 3'; d 2'-deoxyribose, r ribose, m 2'-O-methylribose, p phosphate. ss, as = sense and antisense strand; note: test concentration or dose not given here"}
{"molecular_target": "Mmp7 (rat)", "assay": "reporter assay of Huesken 2005", "details": "siRNA", "units": {"normalised inhibition (eCFP-eYFP dual reporter)": "%"}}
{"substance": "RNA1{r(A)p.r(G)p.r(A)p.r(A)p.r(G)p.r(U)p.r(G)p.r(A)p.r(C)p.r(C)p.r(G)p.r(C)p.r(A)p.r(C)p.r(U)p.r(U)p.r(C)p.r(A)p.r(G)p.d(T)p.d(T)}|RNA2{r(C)p.r(U)p.r(G)p.r(A)p.r(A)p.r(G)p.r(U)p.r(G)p.r(C)p.r(G)p.r(G)p.r(U)p.r(C)p.r(A)p.r(C)p.r(U)p.r(U)p.r(C)p.r(U)p.d(C)p.d(C)}$$$RNA1{StrandType:ss}|RNA2{StrandType:as}$", "normalised inhibition (eCFP-eYFP dual reporter)": 32.9}
{"substance": "RNA1{r(A)p.r(G)p.r(A)p.r(A)p.r(U)p.r(U)p.r(C)p.r(U)p.r(C)p.r(A)p.r(C)p.r(U)p.r(A)p.r(A)p.r(U)p.r(G)p.r(C)p.r(C)p.r(A)p.d(T)p.d(T)}|RNA2{r(U)p.r(G)p.r(G)p.r(C)p.r(A)p.r(U)p.r(U)p.r(A)p.r(G)p.r(U)p.r(G)p.r(A)p.r(G)p.r(A)p.r(A)p.r(U)p.r(U)p.r(C)p.r(U)p.d(G)p.d(C)}$$$RNA1{StrandType:ss}|RNA2{StrandType:as}$", "normalised inhibition (eCFP-eYFP dual reporter)": 107}
{"substance": "RNA1{r(A)p.r(G)p.r(A)p.r(C)p.r(A)p.r(U)p.r(C)p.r(A)p.r(U)p.r(A)p.r(A)p.r(U)p.r(U)p.r(G)p.r(G)p.r(C)p.r(U)p.r(U)p.r(C)p.d(T)p.d(T)}|RNA2{r(G)p.r(A)p.r(A)p.r(G)p.r(C)p.r(C)p.r(A)p.r(A)p.r(U)p.r(U)p.r(A)p.r(U)p.r(G)p.r(A)p.r(U)p.r(G)p.r(U)p.r(C)p.r(U)p.d(G)p.d(C)}$$$RNA1{StrandType:ss}|RNA2{StrandType:as}$", "normalised inhibition (eCFP-eYFP dual reporter)": 99.4}
{"substance": "RNA1{r(A)p.r(G)p.r(G)p.r(C)p.r(C)p.r(U)p.r(C)p.r(G)p.r(G)p.r(C)p.r(G)p.r(G)p.r(A)p.r(G)p.r(A)p.r(U)p.r(G)p.r(C)p.r(U)p.d(T)p.d(T)}|RNA2{r(A)p.r(G)p.r(C)p.r(A)p.r(U)p.r(C)p.r(U)p.r(C)p.r(C)p.r(G)p.r(C)p.r(C)p.r(G)p.r(A)p.r(G)p.r(G)p.r(C)p.r(C)p.r(U)p.d(G)p.d(G)}$$$RNA1{StrandType:ss}|RNA2{StrandType:as}$", "normalised inhibition (eCFP-eYFP dual reporter)": 68.5}
{"substance": "RNA1{r(A)p.r(G)p.r(G)p.r(C)p.r(G)p.r(C)p.r(A)p.r(G)p.r(A)p.r(A)p.r(U)p.r(U)p.r(A)p.r(U)p.r(C)p.r(U)p.r(U)p.r(A)p.r(G)p.d(T)p.d(T)}|RNA2{r(C)p.r(U)p.r(A)p.r(A)p.r(G)p.r(A)p.r(U)p.r(A)p.r(A)p.r(U)p.r(U)p.r(C)p.r(U)p.r(G)p.r(C)p.r(G)p.r(C)p.r(C)p.r(U)p.d(G)p.d(T)}$$$RNA1{StrandType:ss}|RNA2{StrandType:as}$", "normalised inhibition (eCFP-eYFP dual reporter)": 66}
{"substance": "RNA1{r(A)p.r(G)p.r(G)p.r(C)p.r(G)p.r(U)p.r(G)p.r(A)p.r(A)p.r(C)p.r(U)p.r(U)p.r(C)p.r(C)p.r(U)p.r(G)p.r(U)p.r(U)p.r(U)p.d(T)p.d(T)}|RNA2{r(A)p.r(A)p.r(A)p.r(C)p.r(A)p.r(G)p.r(G)p.r(A)p.r(A)p.r(G)p.r(U)p.r(U)p.r(C)p.r(A)p.r(C)p.r(G)p.r(C)p.r(C)p.r(U)p.d(G)p.d(A)}$$$RNA1{StrandType:ss}|RNA2{StrandType:as}$", "normalised inhibition (eCFP-eYFP dual reporter)": 91.1}
{"substance": "RNA1{r(A)p.r(G)p.r(G)p.r(G)p.r(G)p.r(A)p.r(G)p.r(A)p.r(U)p.r(C)p.r(A)p.r(C)p.r(G)p.r(G)p.r(A)p.r(G)p.r(A)p.r(C)p.r(A)p.d(T)p.d(T)}|RNA2{r(U)p.r(G)p.r(U)p.r(C)p.r(U)p.r(C)p.r(C)p.r(G)p.r(U)p.r(G)p.r(A)p.r(U)p.r(C)p.r(U)p.r(C)p.r(C)p.r(C)p.r(C)p.r(U)p.d(T)p.d(G)}$$$RNA1{StrandType:ss}|RNA2{StrandType:as}$", "normalised inhibition (eCFP-eYFP dual reporter)": 102}
{"substance": "RNA1{r(A)p.r(G)p.r(U)p.r(A)p.r(C)p.r(U)p.r(G)p.r(G)p.r(A)p.r(C)p.r(G)p.r(G)p.r(A)p.r(U)p.r(G)p.r(G)p.r(U)p.r(G)p.r(A)p.d(T)p.d(T)}|RNA2{r(U)p.r(C)p.r(A)p.r(C)p.r(C)p.r(A)p.r(U)p.r(C)p.r(C)p.r(G)p.r(U)p.r(C)p.r(C)p.r(A)p.r(G)p.r(U)p.r(A)p.r(C)p.r(U)p.d(C)p.d(A)}$$$RNA1{StrandType:ss}|RNA2{StrandType:as}$", "normalised inhibition (eCFP-eYFP dual reporter)": 90.5}
{"substance": "RNA1{r(A)p.r(G)p.r(U)p.r(C)p.r(U)p.r(U)p.r(A)p.r(C)p.r(A)p.r(A)p.r(A)p.r(G)p.r(G)p.r(A)p.r(C)p.r(G)p.r(A)p.r(C)p.r(A)p.d(T)p.d(T)}|RNA2{r(U)p.r(G)p.r(U)p.r(C)p.r(G)p.r(U)p.r(C)p.r(C)p.r(U)p.r(U)p.r(U)p.r(G)p.r(U)p.r(A)p.r(A)p.r(G)p.r(A)p.r(C)p.r(U)p.d(G)p.d(A)}$$$RNA1{StrandType:ss}|RNA2{StrandType:as}$", "normalised inhibition (eCFP-eYFP dual reporter)": 98.7}
{"substance": "RNA1{r(A)p.r(G)p.r(U)p.r(G)p.r(C)p.r(A)p.r(G)p.r(U)p.r(G)p.r(G)p.r(A)p.r(C)p.r(A)p.r(A)p.r(A)p.r(C)p.r(U)p.r(G)p.r(A)p.d(T)p.d(T)}|RNA2{r(U)p.r(C)p.r(A)p.r(G)p.r(U)p.r(U)p.r(U)p.r(G)p.r(U)p.r(C)p.r(C)p.r(A)p.r(C)p.r(U)p.r(G)p.r(C)p.r(A)p.r(C)p.r(U)p.d(G)p.d(G)}$$$RNA1{StrandType:ss}|RNA2{StrandType:as}$", "normalised inhibition (eCFP-eYFP dual reporter)": 110}
{"substance": "RNA1{r(A)p.r(G)p.r(U)p.r(G)p.r(C)p.r(C)p.r(A)p.r(G)p.r(A)p.r(U)p.r(G)p.r(U)p.r(U)p.r(G)p.r(C)p.r(A)p.r(G)p.r(A)p.r(A)p.d(T)p.d(T)}|RNA2{r(U)p.r(U)p.r(C)p.r(U)p.r(G)p.r(C)p.r(A)p.r(A)p.r(C)p.r(A)p.r(U)p.r(C)p.r(U)p.r(G)p.r(G)p.r(C)p.r(A)p.r(C)p.r(U)p.d(C)p.d(C)}$$$RNA1{StrandType:ss}|RNA2{StrandType:as}$", "normalised inhibition (eCFP-eYFP dual reporter)": 115}
{"substance": "RNA1{r(A)p.r(G)p.r(U)p.r(U)p.r(C)p.r(U)p.r(G)p.r(U)p.r(G)p.r(A)p.r(U)p.r(G)p.r(U)p.r(A)p.r(C)p.r(C)p.r(C)p.r(U)p.r(A)p.d(T)p.d(T)}|RNA2{r(U)p.r(A)p.r(G)p.r(G)p.r(G)p.r(U)p.r(A)p.r(C)p.r(A)p.r(U)p.r(C)p.r(A)p.r(C)p.r(A)p.r(G)p.r(A)p.r(A)p.r(C)p.r(U)p.d(G)p.d(G)}$$$RNA1{StrandType:ss}|RNA2{StrandType:as}$", "normalised inhibition (eCFP-eYFP dual reporter)": 116}
{"substance": "RNA1{r(A)p.r(G)p.r(U)p.r(U)p.r(C)p.r(U)p.r(U)p.r(C)p.r(G)p.r(G)p.r(U)p.r(U)p.r(U)p.r(G)p.r(C)p.r(C)p.r(G)p.r(G)p.r(A)p.d(T)p.d(T)}|RNA2{r(U)p.r(C)p.r(C)p.r(G)p.r(G)p.r(C)p.r(A)p.r(A)p.r(A)p.r(C)p.r(C)p.r(G)p.r(A)p.r(A)p.r(G)p.r(A)p.r(A)p.r(C)p.r(U)p.d(T)p.d(C)}$$$RNA1{StrandType:ss}|RNA2{StrandType:as}$", "normalised inhibition (eCFP-eYFP dual reporter)": 53.8}
{"substance": "RNA1{r(A)p.r(U)p.r(C)p.r(U)p.r(U)p.r(A)p.r(G)p.r(G)p.r(A)p.r(A)p.r(A)p.r(U)p.r(U)p.r(U)p.r(U)p.r(A)p.r(C)p.r(C)p.r(U)p.d(T)p.d(T)}|RNA2{r(A)p.r(G)p.r(G)p.r(U)p.r(A)p.r(A)p.r(A)p.r(A)p.r(U)p.r(U)p.r(U)p.r(C)p.r(C)p.r(U)p.r(A)p.r(A)p.r(G)p.r(A)p.r(U)p.d(A)p.d(A)}$$$RNA1{StrandType:ss}|RNA2{StrandType:as}$", "normalised inhibition (eCFP-eYFP dual reporter)": 79.6}
{"substance": "RNA1{r(A)p.r(U)p.r(G)p.r(A)p.r(G)p.r(U)p.r(A)p.r(C)p.r(U)p.r(G)p.r(G)p.r(A)p.r(C)p.r(G)p.r(G)p.r(A)p.r(U)p.r(G)p.r(G)p.d(T)p.d(T)}|RNA2{r(C)p.r(C)p.r(A)p.r(U)p.r(C)p.r(C)p.r(G)p.r(U)p.r(C)p.r(C)p.r(A)p.r(G)p.r(U)p.r(A)p.r(C)p.r(U)p.r(C)p.r(A)p.r(U)p.d(C)p.d(C)}$$$RNA1{StrandType:ss}|RNA2{StrandType:as}$", "normalised inhibition (eCFP-eYFP dual reporter)": 41.9}
{"substance": "RNA1{r(A)p.r(U)p.r(G)p.r(G)p.r(U)p.r(G)p.r(A)p.r(G)p.r(G)p.r(A)p.r(C)p.r(U)p.r(C)p.r(A)p.r(G)p.r(G)p.r(C)p.r(G)p.r(U)p.d(T)p.d(T)}|RNA2{r(A)p.r(C)p.r(G)p.r(C)p.r(C)p.r(U)p.r(G)p.r(A)p.r(G)p.r(U)p.r(C)p.r(C)p.r(U)p.r(C)p.r(A)p.r(C)p.r(C)p.r(A)p.r(U)p.d(C)p.d(C)}$$$RNA1{StrandType:ss}|RNA2{StrandType:as}$", "normalised inhibition (eCFP-eYFP dual reporter)": 65.7}
{"substance": "RNA1{r(A)p.r(U)p.r(G)p.r(U)p.r(U)p.r(G)p.r(C)p.r(A)p.r(G)p.r(A)p.r(A)p.r(U)p.r(U)p.r(C)p.r(U)p.r(C)p.r(A)p.r(C)p.r(U)p.d(T)p.d(T)}|RNA2{r(A)p.r(G)p.r(U)p.r(G)p.r(A)p.r(G)p.r(A)p.r(A)p.r(U)p.r(U)p.r(C)p.r(U)p.r(G)p.r(C)p.r(A)p.r(A)p.r(C)p.r(A)p.r(U)p.d(C)p.d(T)}$$$RNA1{StrandType:ss}|RNA2{StrandType:as}$", "normalised inhibition (eCFP-eYFP dual reporter)": 80.2}
{"substance": "RNA1{r(A)p.r(U)p.r(U)p.r(U)p.r(G)p.r(A)p.r(U)p.r(G)p.r(G)p.r(G)p.r(C)p.r(C)p.r(A)p.r(G)p.r(G)p.r(A)p.r(A)p.r(A)p.r(C)p.d(T)p.d(T)}|RNA2{r(G)p.r(U)p.r(U)p.r(U)p.r(C)p.r(C)p.r(U)p.r(G)p.r(G)p.r(C)p.r(C)p.r(C)p.r(A)p.r(U)p.r(C)p.r(A)p.r(A)p.r(A)p.r(U)p.d(G)p.d(G)}$$$RNA1{StrandType:ss}|RNA2{StrandType:as}$", "normalised inhibition (eCFP-eYFP dual reporter)": 10.5}
{"substance": "RNA1{r(C)p.r(A)p.r(A)p.r(A)p.r(C)p.r(A)p.r(G)p.r(U)p.r(C)p.r(C)p.r(U)p.r(A)p.r(A)p.r(G)p.r(U)p.r(G)p.r(G)p.r(C)p.r(A)p.d(T)p.d(T)}|RNA2{r(U)p.r(G)p.r(C)p.r(C)p.r(A)p.r(C)p.r(U)p.r(U)p.r(A)p.r(G)p.r(G)p.r(A)p.r(C)p.r(U)p.r(G)p.r(U)p.r(U)p.r(U)p.r(G)p.d(G)p.d(C)}$$$RNA1{StrandType:ss}|RNA2{StrandType:as}$", "normalised inhibition (eCFP-eYFP dual reporter)": 81.2}
{"substance": "RNA1{r(C)p.r(A)p.r(A)p.r(A)p.r(G)p.r(A)p.r(A)p.r(G)p.r(G)p.r(C)p.r(C)p.r(A)p.r(C)p.r(C)p.r(A)p.r(G)p.r(U)p.r(G)p.r(C)p.d(T)p.d(T)}|RNA2{r(G)p.r(C)p.r(A)p.r(C)p.r(U)p.r(G)p.r(G)p.r(U)p.r(G)p.r(G)p.r(C)p.r(C)p.r(U)p.r(U)p.r(C)p.r(U)p.r(U)p.r(U)p.r(G)p.d(T)p.d(T)}$$$RNA1{StrandType:ss}|RNA2{StrandType:as}$", "normalised inhibition (eCFP-eYFP dual reporter)": 38.2}
